Assay [1] relates to vancomycin-susceptible enterococci. Nature of the assay: broth micro-dilution, mean geometric MIC. Conditions: enterococci, 24-hour incubation. It is filed as cell-based, Enterococcus faecium and Enterococcus faecalis.
Assay [2] deals with vancomycin-resistant enterococci. The assay can be described thus: broth micro-dilution, mean geometric MIC. It is filed as cell-based, Enterococcus faecium and Enterococcus faecalis. Conditions: enterococci, 24-hour incubation. (In general: Broth dilution looks for growth in wells or tubes with falling amounts of substance.)
The test system of assay [3] is Streptococcus pneumoniae. The assay can be described thus: mouse protection, experimentally-induced infection. Particulars: mice infected with Streptococcus pneumoniae, two doses. The format is in vivo.
For assay [4], the system named is Entercoccus faecium 180. The assay can be described thus: broth micro-dilution MIC. Conditions: Entercoccus faecium 180. The format is cell-based. How it is done: (§1) The formula I compounds have in vitro and in vivo activity against Gram-positive pathogenic bacteria. The MIC's were determined using a standard broth micro-dilution assay.
Assay [5] relates to Entercoccus faecium 2041. Nature of the assay: broth micro-dilution MIC. The format is cell-based. Conditions: Entercoccus faecium 2041. How it is done: as §1
The subject of assay [6] is Enterococcus gallinarum 245. The assay can be described thus: broth micro-dilution MIC. The format is cell-based. Conditions: Enterococcus gallinarum 245. On the procedure:
as §1

Assay [7] has as its system Staphylococcus epidermidis 270. Nature of the assay: broth micro-dilution MIC. The format is cell-based. How it is done:
as §1

In assay [8] the test system is Staphylococcus aureus X400. The assay can be described thus: broth micro-dilution MIC. The format is cell-based. On the procedure: (§2) The MIC's were determined using a standard broth micro-dilution assay.
The test system of assay [9] is Entercoccus faecium 276. The assay can be described thus: broth micro-dilution MIC. The format is cell-based. How it is done: as §2
For assay [10], the system named is Streptococcus pyogenes C203. The assay can be described thus: broth micro-dilution MIC. The format is cell-based. How it is done: as §2
Assay [11] deals with Staphylococcus aureus 489. Nature of the assay: broth micro-dilution MIC. It is filed as cell-based. How it is done: as §2
The test system of assay [12] is Staphylococcus aureus X778. Nature of the assay: broth micro-dilution MIC. It is filed as cell-based. On the procedure:
as §2

Assay [13] relates to Staphylococcus aureus 491. Nature of the assay: broth micro-dilution MIC. The format is cell-based. On the procedure:
as §2

The subject of assay [14] is Staphylococcus aureus SA1199A. The assay can be described thus: broth micro-dilution MIC. The format is cell-based. How it is done: as §2
Assay [15] deals with Entercoccus faecium 180-1. Nature of the assay: broth micro-dilution MIC. The format is cell-based. How it is done:
as §2

Assay [16] deals with Streptococcus pyogenes. The assay can be described thus: mouse protection, experimentally-induced infection. It is filed as in vivo. Particulars: mice infected with Streptococcus pyogenes, two doses.
The subject of assay [17] is Stapylococcus aureus. The assay can be described thus: mouse protection, experimentally-induced infection. Particulars: mice infected with Stapylococcus aureus, two doses. It is filed as in vivo.
The test system of assay [18] is Staphylococcus haemolyticus 415. The assay can be described thus: broth micro-dilution MIC. It is filed as cell-based. How it is done:
as §1

Assay [19] concerns Streptococcus pneumoniae P1. Nature of the assay: broth micro-dilution MIC. It is filed as cell-based. How it is done:
as §1

In assay [20] the test system is Staphylococcus haemolyticus 105. The assay can be described thus: broth micro-dilution MIC. It is filed as cell-based. On the procedure: as §1
Assay [21] has as its system Staphylococcus aureus SA1199. Nature of the assay: broth micro-dilution MIC. It is filed as cell-based. On the procedure: as §2
The subject of assay [22] is Staphylococcus aureus 447. Nature of the assay: broth micro-dilution MIC. It is filed as cell-based. How it is done: as §2
Assay [23] relates to Staphylococcus aureus 446. The assay can be described thus: broth micro-dilution MIC. It is filed as cell-based. On the procedure:
as §2

The test system of assay [24] is Staphylococcus aureus S13E. It is filed as cell-based. How it is done:
as §2

The subject of assay [25] is Staphylococcus aureus SA1199B. It is filed as cell-based. How it is done:
as §2

Assay [26] has as its system Haemophilus influenzae RD. The assay can be described thus: broth micro-dilution MIC. The format is cell-based. Particulars: Haemophilus influenzae RD. On the procedure:
as §1

Values after ≈ are worked out from the molar mass of the structure shown.

For `CCCCCc1ccc(-c2ccc(CNC3(C)CC(OC4C(Oc5c6cc7cc5Oc5ccc(cc5Cl)C(OC5CC(C)(N)C(O)C(C)O5)C5NC(=O)C(NC(=O)C7NC(=O)C(CC(N)=O)NC(=O)C(NC(=O)C(CC(C)C)NC)C(O)c7ccc(c(Cl)c7)O6)c6ccc(O)c(c6)-c6c(O)cc(O)cc6C(C(=O)O)NC5=O)OC(CO)C(O)C4O)OC(C)C3O)cc2)cc1` (centres unmarked) [Compound 22], in assay [1], the “mean geometric MIC, Vancomycin Sensitive Strains” value stood at 1.5 mg/L. The “mean geometric MIC, Vancomycin Resistant Strains” value in assay [2] was found to be 1.0 mg/L. Moreover, the ED50 result is given as “> .05 mg/kg/2” in assay [3], above 0.5 mg/kg/2 in assay [16] and 0.049 mg/kg/2 in assay [17]. The MIC in [4] is 1 mg/L (≈ 0.547 µM); in assay [5] it was 2 mg/L (≈ 1.09 µM); in [6], 1 mg/L (≈ 0.547 µM); in assay [7], 4 mg/L (≈ 2.19 µM); in assay [8] it was 8 mg/L (≈ 4.37 µM); in assay [9] it was 4 mg/L (≈ 2.19 µM). Moreover, the MIC in assay [10] was at most 0.06 mg/L; in assay [11], 8 mg/L (≈ 4.37 µM); in assay [12] it was 8 mg/L (≈ 4.37 µM); in assay [13], 8 mg/L (≈ 4.37 µM); in [14], 4 mg/L (≈ 2.19 µM); in assay [15], at most 0.06 mg/L.
On to `CNC(CC(C)C)C(=O)NC1C(=O)NC(CC(N)=O)C(=O)NC2C(=O)NC3C(=O)NC(C(=O)NC(C(=O)O)c4cc(O)cc(O)c4-c4cc3ccc4O)C(OC3CC(C)(N)C(O)C(C)O3)c3ccc(c(Cl)c3)Oc3cc2cc(c3OC2OC(CO)C(O)C(O)C2OC2CC(C)(NCc3ccc(OCc4ccccc4)c(OCc4ccccc4)c3)C(O)C(C)O2)Oc2ccc(cc2Cl)C1O` (centres unmarked) [Compound 53], for which the “mean geometric MIC, Vancomycin Sensitive Strains” value in assay [1] turned out to be 0.25 mg/L. Also, the “mean geometric MIC, Vancomycin Resistant Strains” value in [2] amounted to 0.35 mg/L. The ED50 in assay [3] is given as 0.071 mg/kg/2; in assay [16] it was 0.16 mg/kg/2; in [17] it was 0.077 mg/kg/2. Moreover, the MIC in assay [4] is 1 mg/L (≈ 0.528 µM); in assay [5], 1 mg/L (≈ 0.528 µM); in assay [18], 2 mg/L (≈ 1.06 µM); in [6] it was 2 mg/L (≈ 1.06 µM); in assay [19], at most 0.06 mg/L; in [20], 2 mg/L (≈ 1.06 µM). Besides, the MIC was 2 mg/L (≈ 1.06 µM) in [7]; 2 mg/L (≈ 1.06 µM) in assay [21]; 8 mg/L (≈ 4.22 µM) in assay [9]; at most 0.06 mg/L in assay [10]; 4 mg/L (≈ 2.11 µM) in assay [22]; 2 mg/L (≈ 1.06 µM) in assay [12]. For the same compound, the MIC in assay [23], in assay [13], in [15], in [24] and in assay [25] was 2 mg/L (≈ 1.06 µM) throughout.
As for `CNC(CC(C)C)C(=O)NC1C(=O)NC(CC(N)=O)C(=O)NC2C(=O)NC3C(=O)NC(C(=O)NC(C(=O)O)c4cc(O)cc(O)c4-c4cc3ccc4O)C(OC3CC(C)(N)C(O)C(C)O3)c3ccc(c(Cl)c3)Oc3cc2cc(c3OC2OC(CO)C(O)C(O)C2OC2CC(C)(NCc3ccc(Oc4ccc([N+](=O)[O-])cc4)cc3)C(O)C(C)O2)Oc2ccc(cc2Cl)C1O` (centres unmarked) [Compound 57], in assay [1], the “mean geometric MIC, Vancomycin Sensitive Strains” value came out at 0.041 mg/L. In addition, the “mean geometric MIC, Vancomycin Resistant Strains” value in assay [2] came to 0.35 mg/L. The ED50 is recorded as 0.046 mg/kg/2 in assay [3], 0.054 mg/kg/2 in [16] and 0.041 mg/kg/2 in [17]. Further, the MIC was 0.5 mg/L (≈ 0.275 µM) in [4]; at most 0.06 mg/L in assay [5]; 1 mg/L (≈ 0.55 µM) in assay [18]; 2 mg/L (≈ 1.1 µM) in [6]; at most 0.06 mg/L in [19]; 8 mg/L (≈ 4.4 µM) in assay [20]. The MIC in assay [7] is 0.5 mg/L (≈ 0.275 µM); in assay [21] it was at most 0.06 mg/L; in [9], 0.5 mg/L (≈ 0.275 µM); in [10], at most 0.06 mg/L; in [11], 0.5 mg/L (≈ 0.275 µM); in assay [22], 0.5 mg/L (≈ 0.275 µM). Further, the MIC in assay [12], in [14], in [15] and in [24] was at most 0.06 mg/L throughout.
For the compound `CNC(CC(C)C)C(=O)NC1C(=O)NC(CC(N)=O)C(=O)NC2C(=O)NC3C(=O)NC(C(=O)NC(C(=O)O)c4cc(O)cc(O)c4-c4cc3ccc4O)C(OC3CC(C)(N)C(O)C(C)O3)c3ccc(c(Cl)c3)Oc3cc2cc(c3OC2OC(CO)C(O)C(O)C2OC2CC(C)(NCc3ccc(-c4ccc(Cl)cc4)cc3)C(O)C(C)O2)Oc2ccc(cc2Cl)C1O` (centres unmarked) [Compound 229, 4-[4-chlorophenyl]benzyl-A82846B], in assay [1], the “mean geometric MIC, Vancomycin Sensitive Strains” value worked out at 0.024 mg/L. For the same compound, the “mean geometric MIC, Vancomycin Resistant Strains” value in assay [2] is 0.50 mg/L. In addition, the ED50 came to 0.078 mg/kg/2 in [3] and 0.058 mg/kg/2 in assay [16]. The MIC in [4] is at most 0.06 mg/L; in assay [5], at most 0.06 mg/L; in [18], 2 mg/L (≈ 1.12 µM); in assay [6] it was 2 mg/L (≈ 1.12 µM); in [19], at most 0.06 mg/L; in assay [20], 1 mg/L (≈ 0.558 µM). For the same compound, the MIC in assay [26] is 2 mg/L (≈ 1.12 µM); in [7], 0.5 mg/L (≈ 0.279 µM); in assay [8], 1 mg/L (≈ 0.558 µM); in [21], 1 mg/L (≈ 0.558 µM); in assay [9], 0.25 mg/L (≈ 0.139 µM); in [10], at most 0.06 mg/L. Moreover, the MIC is 1 mg/L (≈ 0.558 µM) in [11]; 2 mg/L (≈ 1.12 µM) in assay [22]; 1 mg/L (≈ 0.558 µM) in assay [12]; 1 mg/L (≈ 0.558 µM) in [23]; 0.5 mg/L (≈ 0.279 µM) in assay [13]; at most 0.06 mg/L in [14]. The MIC in [15] is at most 0.06 mg/L; in assay [24], 1 mg/L (≈ 0.558 µM); in assay [25], 1 mg/L (≈ 0.558 µM).
Take `CN[C@@H](CC(C)C)C(=O)N[C@H]1C(=O)N[C@H](CC(N)=O)C(=O)N[C@H]2C(=O)N[C@H]3C(=O)N[C@@H](C(=O)NC(C(=O)O)c4cc(O)cc(O)c4-c4cc3ccc4O)[C@@H](O[C@H]3C[C@](C)(N)[C@H](O)[C@@H](C)O3)c3ccc(cc3)Oc3cc2cc(c3O[C@H]2O[C@@H](CO)[C@@H](O)[C@H](O)[C@@H]2O[C@H]2C[C@](C)(N)[C@H](O)[C@@H](C)O2)Oc2ccc(cc2)[C@@H]1O` (some centres unmarked) [Compound A82846C, A82846C, reference compound]: the “mean geometric MIC, Vancomycin Resistant Strains” value in assay [2] is 353 mg/L. For the same compound, the MIC was 16 mg/L (≈ 10.5 µM) in assay [4]; 0.5 mg/L (≈ 0.328 µM) in [5]; 2 mg/L (≈ 1.31 µM) in assay [18]; 0.5 mg/L (≈ 0.328 µM) in assay [6]; “≤ .06 mg/L” in assay [19]; 1 mg/L (≈ 0.656 µM) in [20]. Moreover, the MIC in assay [9] was 0.5 mg/L (≈ 0.328 µM); in assay [11] it was “≤ .06 mg/L”; in assay [22] it was 0.5 mg/L (≈ 0.328 µM); in assay [12] it was 0.5 mg/L (≈ 0.328 µM); in [23], 0.5 mg/L (≈ 0.328 µM); in [13], 1 mg/L (≈ 0.656 µM). In assay [25], the MIC entry is “≤ .06 mg/L”. Besides, the ED50 was determined as 1.5 mg/kg/2 in [16] and 1.3 mg/kg/2 in [17].

For the origin of these results see patent publication US5840684A, “Glycopeptide antibiotic derivatives” (Eli Lilly and Company, priority 1995, dated 1998).
